One data set concerns melanoma A375 cells. As to the kind of experiment: A375 cell proliferation (crystal violet plate assay). The data set is classed as cell-based, human.
The next data set deals with U2OS cells. Kind of data set: GFP-LC3 / LAMP1-RFP co-localization (autolysosome formation). As to conditions: compound 1 or rapamycin and compound 1, 4 hours. The data set is classed as cell-based, human. The method, then: Confocal microscopic images are shown in FIG. 13A of U2OS cells that were co-transfected with a GFP-LC3B expression vector to label autophagosomes green and a LAMP1-RFP expression vector to label lysosomes red. Cells were then treated for 4 hrs with 1 μM rapamycin to induce autophagy, or with 1 μM compound 1 to disrupt autophagy, or with both 1 μM rapamycin and 1 μM compound 1. Cells were then fixed and viewed by confocal microscopy. Nuclei were stained with DAPI. […] The mean±SEM results from 50 cells is given for two independent experiments.
To determine whether or not the absence of an acidic environment resulted from failure of lysosomes to fuse with autophagosomes, cells were transfected with both GFP-LC3 and LAMP1-RFP expression vectors, and then cultured for 4 hours in the presence of vehicle, rapamycin, or both rapamycin and compound 1 (FIG. 13). Rapamycin is an established inducer of autophagy (42, 43). As expected, rapamycin induced accumulation of GFP-LC3 labeled autophagosomes (green), some of which were autolysosomes, as shown by co-localization with LAMP1-RFP on control cells. In contrast, GFP-LC3 and LAMP1-RFP labeled different populations of vesicles in cells cultured with either compound 1 or rapamycin and compound 1, despite the fact that the density of autophagosomes was at least 3-fold greater.

Data set [1] relates to osteosarcoma U2OS cells. As to the kind of experiment: U2OS cell viability (cellular ATP). The data set is classed as cell-based, human. From the text: (§1) These effects are dependent on the compound selected, its concentration and the length of time cells are exposed to the compound.
The target of a further data set is T1, PIKFYVE (Homo sapiens, UniProt Q9Y2I7).
T1 construct: purchased DiscoverX (KINOMEscan service, San Diego, Calif.)
T1 sequence (Q9Y2I7 whole entry): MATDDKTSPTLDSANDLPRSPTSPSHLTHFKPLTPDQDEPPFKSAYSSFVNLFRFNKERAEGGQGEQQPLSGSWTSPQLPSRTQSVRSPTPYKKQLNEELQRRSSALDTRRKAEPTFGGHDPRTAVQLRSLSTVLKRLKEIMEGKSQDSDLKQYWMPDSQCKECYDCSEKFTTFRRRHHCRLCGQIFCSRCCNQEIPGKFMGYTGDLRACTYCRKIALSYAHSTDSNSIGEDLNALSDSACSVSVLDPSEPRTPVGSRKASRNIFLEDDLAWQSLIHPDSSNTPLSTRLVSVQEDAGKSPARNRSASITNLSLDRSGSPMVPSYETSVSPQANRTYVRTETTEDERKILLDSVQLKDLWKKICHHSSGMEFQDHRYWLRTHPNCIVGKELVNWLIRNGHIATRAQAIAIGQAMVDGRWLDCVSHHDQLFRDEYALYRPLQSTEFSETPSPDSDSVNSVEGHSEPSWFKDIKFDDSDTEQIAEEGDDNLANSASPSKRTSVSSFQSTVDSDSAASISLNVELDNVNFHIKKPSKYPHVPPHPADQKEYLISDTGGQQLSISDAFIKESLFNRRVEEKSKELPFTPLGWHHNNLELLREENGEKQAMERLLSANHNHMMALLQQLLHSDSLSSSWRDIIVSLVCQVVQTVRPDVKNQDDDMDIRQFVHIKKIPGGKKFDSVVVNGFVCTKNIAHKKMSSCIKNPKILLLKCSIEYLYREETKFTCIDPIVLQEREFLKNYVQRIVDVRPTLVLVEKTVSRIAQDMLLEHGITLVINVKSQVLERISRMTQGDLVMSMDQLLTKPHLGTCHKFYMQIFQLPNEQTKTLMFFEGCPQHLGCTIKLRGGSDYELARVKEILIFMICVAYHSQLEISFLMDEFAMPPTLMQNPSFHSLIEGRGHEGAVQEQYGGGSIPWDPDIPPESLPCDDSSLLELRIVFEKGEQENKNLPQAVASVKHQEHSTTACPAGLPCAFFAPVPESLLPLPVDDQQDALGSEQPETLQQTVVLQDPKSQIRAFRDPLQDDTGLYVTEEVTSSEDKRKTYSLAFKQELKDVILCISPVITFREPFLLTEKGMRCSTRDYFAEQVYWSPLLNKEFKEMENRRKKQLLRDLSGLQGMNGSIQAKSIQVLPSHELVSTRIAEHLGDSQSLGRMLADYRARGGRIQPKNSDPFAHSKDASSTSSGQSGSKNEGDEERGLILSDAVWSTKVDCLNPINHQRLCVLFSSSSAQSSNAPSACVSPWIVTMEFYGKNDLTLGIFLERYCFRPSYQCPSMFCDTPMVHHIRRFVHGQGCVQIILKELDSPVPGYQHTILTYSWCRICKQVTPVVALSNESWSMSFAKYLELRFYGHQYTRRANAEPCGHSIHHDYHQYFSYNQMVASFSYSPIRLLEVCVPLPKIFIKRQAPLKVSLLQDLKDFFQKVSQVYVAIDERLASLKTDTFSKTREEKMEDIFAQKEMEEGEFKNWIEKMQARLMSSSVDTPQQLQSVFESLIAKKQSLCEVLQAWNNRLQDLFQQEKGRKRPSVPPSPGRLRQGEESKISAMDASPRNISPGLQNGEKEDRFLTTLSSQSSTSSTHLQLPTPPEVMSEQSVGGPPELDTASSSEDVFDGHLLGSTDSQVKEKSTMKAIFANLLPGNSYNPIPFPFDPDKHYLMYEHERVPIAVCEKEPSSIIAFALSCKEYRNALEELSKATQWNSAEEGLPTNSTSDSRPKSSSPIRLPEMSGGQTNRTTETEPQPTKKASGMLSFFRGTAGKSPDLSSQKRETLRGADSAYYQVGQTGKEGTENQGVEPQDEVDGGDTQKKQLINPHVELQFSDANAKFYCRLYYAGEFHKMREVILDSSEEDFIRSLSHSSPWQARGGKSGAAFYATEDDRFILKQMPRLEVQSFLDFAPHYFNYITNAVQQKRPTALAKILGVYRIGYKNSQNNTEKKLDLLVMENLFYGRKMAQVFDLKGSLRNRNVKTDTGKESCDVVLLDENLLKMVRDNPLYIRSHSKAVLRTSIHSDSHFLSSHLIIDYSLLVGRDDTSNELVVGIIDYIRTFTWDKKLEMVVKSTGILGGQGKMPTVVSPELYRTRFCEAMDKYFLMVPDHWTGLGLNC
Kind of data set: DiscoverX KINOMEscan dissociation constant. The class given is binding. As for the experimental part:
(§2) Each kinase was tagged with a unique DNA sequence that allowed the amount of protein bound to the solid support to be quantified by PCR. The top three targets for compound 1 were PIKFYVE, PIP4K2C and MTOR. […] Dissociation constants (Kd) were determined from the amount of kinase captured on the solid support as a function of the test compound concentration (nM) on a log10 scale. Mean Kd values (±range) are given for each compound. The ratio of PIP4K2C to PIKFYVE indicates the relative specificity for these two kinases.
(§3) To address this hypothesis, a panel of 468 human kinases were screened for their ability to bind compound 1. […] The top two candidates were PIKFYVE (phosphoinositide kinase FYVE-type zinc finger containing) and PIP4K2C (phosphatidylinositol-5-phosphate 4-kinase). PIKFYVE is a kinase that is essential for mouse development (49) and that prevents endosome enlargement and cytoplasmic vacuolization (50, 51). PIP4K2C is a kinase that is not essential for mouse growth and viability, but it is essential for the immune system (52), mTORC1 signaling (53), and regulation of autophagy (54). The third candidate was MTOR, a kinase that regulates autophagy (55). Therefore, the binding constants (Kd) for all five members of the compound 1-family were determined for each of these three proteins from two independent titration curves, as shown for compound 1.

Data set [2] deals with osteosarcoma U2OS cells. As to the kind of experiment: U2OS cell proliferation. The class given is cell-based, human.
Description: as §1
Cells were obtained from the American Type Culture Collection. BORCS5-KO HeLa cells have been described previously. Osteosarcoma U2OS were routinely seeded in 6-well plates (0.5×10^5 cells/well) and cultured in Dulbecco's Modified Eagle's medium supplemented with L-Glutamine, 4.5 g/L Glucose, Sodium Pyruvate, Phenol Red, and either heat-inactivated or normal 10% fetal calf serum at 37° C. in 5% CO2. Approximately 15-19 hours later, the indicated compound was added in 1:1000 dilutions. Results were the same using either heat-inactivated or normal fetal calf serum. Melanoma A375, embryonic kidney 293T and human foreskin fibroblast Hs27 cells were cultured in the same medium, except that cells were seeded into 12-well plates at 10^3 cells/well.

The test system of the next data set is 468 human kinases. As to the kind of experiment: DiscoverX KINOMEscan profile at 10 μM. The data set is classed as binding. The note with it: panel of 468 human kinases. The method, then:
as §2, §3

For data set [3], the system named is breast adenocarcinoma cells. Kind of data set: Viability of breast adenocarcinoma cells. As to conditions: Homo sapiens; breast adenocarcinoma cells; read-out: EC50. The class given is cell-based. As for the experimental part:
FIG. 18 summarizes results from 13 human cell lines. All cells were seeded at the same cell density in a rich culture medium and assayed under identical conditions. Compound 1 efficacy is the ratio of cell viability with compound 1 to cell viability with chloroquine derivatives.

The next data set has as its system melanoma A375 tumors. Kind of data set: Expansion of preformed A375 tumors in outbred nude mice. The data set is classed as in vivo. The method, then:
Melanoma A375 cells were inoculated subcutaneously into outbred nude mice on day 0 (broad arrow). Intraperitoneal injections (arrows) of vehicle (open circles), 20 mg compound 1 (grey circles), or 40 mg compound 1/kg (solid circle) of mouse weight were administered daily beginning with day 7 when palpable tumors were present. Each group contained three mice. SEMs are indicated. Error bars indicate the SEM for 6 tumors.
The genetic diversity of human populations is greater than the genetic diversity of inbred animals. Therefore, the experiment in FIG. 20 with inbred nude mice was repeated with outbred nude mice.

A further data set relates to lysosomes in U2OS cells. Kind of data set: Ratiometric analysis of lysosomal pH (Oregon Green 488 dextran). The data set is classed as cell-based, human. As to conditions: 1 μM. As for the experimental part: U2OS cells were cultured for 4 hr with vehicle, 1 μM compound 1, or 50 mM ammonium chloride. The results of two independent experiments were averaged together. Data were analyzed by one-way ANOVA (p=0.0005) and Tukey's post-hoc test (p<0.0001). Scale bars indicate 10 μm. The results of three independent experiments were averaged together. […] Cells that had been transfected with LAMP1-RFP expression vector were then stained with LysoSensor Green DND-189, a fluorescent probe that fluoresces only in the acidic compartments of live cells. […] Bars represent 20 μm.
To determine the pH of individual lysosomes, dual-wavelength ratio imaging was conducted as previously describe (102), with minor modifications. U2OS and RAW264.7 cells were cultured in imaging chambers (Cellvis, Mountain View Calif., Cat #C4-1.5/h-N) in complete culture medium at 37° C. and 5% CO2. Cells were incubated overnight with 50 μg/mL Oregon Green 488 dextran (Invitrogen, Carlsbad, Calif., D7170). The following day, the cells were cultured with dextran-free complete culture medium for at least 2 h to ensure lysosomal targeting of the probe. Cells were then cultured with compound 1 for the indicated times and concentrations. […]

The values below come from patent US11471460B2, “Autophagy modulators for use in treating cancer” (The United States of America,as represented by the …, priority 2017, dated 2022).

“Also recorded” adds a separate entry of the source.

The Kd is the constant that tells how readily two partners part at equilibrium. Low values mean tighter binding, high ones weaker binding. As a reminder, the EC50 is the concentration at which the effect is half-maximal. As for `C1=Nc2ccccc2/C1=C/NNc1nc(Nc2ccccc2)nc(N2CCOCC2)n1` [compound 1], the “Inhibition of proliferation of melanoma A375 cells” value in the data set with melanoma A375 cells is recorded as “inhibited A375 cell proliferation”. The “Efficacy at inhibiting A375 cell proliferation relative to HCQ or CQ” value in the data set with melanoma A375 cells (plate assays) is “at least 100 times”. Moreover, in the data set on U2OS cells, the “Density of autophagosomes relative to rapamycin alone” value is reported as “at least 3 fold”. Besides, the “Efficacy at reducing U2OS viability relative to HCQ or CQ” value with osteosarcoma U2OS cells [1] was determined as 13 times. Also, the “Standing within the family for PIKFYVE binding” value on PIKFYVE is “the most potent member”. The compound also gave a dissociation constant Kd at PIKFYVE (mean of two independent titration curves) of 1 nM. For the same compound, the “Efficacy at inhibiting U2OS cell proliferation relative to HCQ or CQ” value in the data set with osteosarcoma U2OS cells [2] amounted to 21 times. Besides, the “Effect on U2OS cells” value in the data set with osteosarcoma U2OS cells [2] (0.1 μM) is “reduced the proliferation rate”. In the data set with osteosarcoma U2OS cells [2] (cancer cells that depend on autophagy but are not addicted), the “Efficacy at arresting growth and proliferation relative to HCQ and CQ” value is recorded as 20 ×. Further, in the data set on 468 human kinases, the “Number of kinases with binding affinities of 25% or greater” value is given as “ten”. Moreover, the EC50 in data set [3] is above 10000 nM. Also, in the data set on melanoma A375 tumors (20 or 40 mg/kg intraperitoneally daily, outbred nude mice), the “Expansion of preformed tumors” value is listed as “inhibited by compound 1 in a dose dependent manner; also recorded: inhibited growth of tumors”. Also, the “Ill effects on mice” value with melanoma A375 tumors (mice weighed each day during injections) is given as “no visible ill effects”. The “Mean pH of lysosomes” value in the data set with lysosomes in U2OS cells (4 h, untreated cells 5.3) amounted to 5.0. Besides, the “Effect on lysosomal acidity” value in the data set with lysosomes in U2OS cells (4 hours) is given as “did not affect lysosomal acidity significantly”.
